Laboratory results taken from patent US8168567B2, “Thiadiazolyl oxyphenyl amidines and the use thereof as a fungicide” (Bayer Cropscience AG, priority 2007, dated 2012).

assay: logP determination (acidic, pH 2.3); type: physicochemical; settings: acidic, read-out: logP (acidic)

logP | SMILES
2.15 | Cc1cc(Oc2nc(C(C)(C)C)ns2)c(C)cc1N=CN(C)C(C)C [A-2, N′-{4-[(3-(tert-butyl)-1,2,4-thiadiazol-5-yl)oxy]-2,5-dimethylphenyl}-N-isopropyl-N-methylimidoformamide]
2.22 | Cc1cc(Oc2nc(C(C)(C)C)ns2)c(C)cc1/N=C/N1CCCCC1 [A-3, 4-[(3-(tert-butyl)-1,2,4-thiadiazol-5-yl)oxy]-2,5-dimethyl-N-[(1E)-piperidin-1-ylmethylene]aniline]
2.11 | CCN(C)C=Nc1cc(Cl)c(Oc2nc(C(C)(C)C)ns2)cc1C [A-8, N′-{4-[(3-(tert-butyl)-1,2,4-thiadiazol-5-yl)oxy]-5-chloro-2-methylphenyl}-N-ethyl-N-methylimidoformamide]
2.36 | Cc1cc(Oc2nc(C(C)(C)C)ns2)c(Cl)cc1/N=C/N1CCCCC1 [A-9, 4-[(3-(tert-butyl)-1,2,4-thiadiazol-5-yl)oxy]-5-chloro-2-methyl-N-[(1E)-piperidin-1-ylmethylene]aniline]

same assay, conditions: read-out: log P (pH 2.3)

logP | SMILES
3.44 | CC(C)(C)c1nsc(Cl)n1 [3-(tert-Butyl)-5-chloro-1,2,4-thiadiazole]
3.29 | Cc1cc(Oc2nc(C(C)(C)C)ns2)c(C)cc1N [4-[(3-(tert-Butyl)-1,2,4-thiadiazol-5-yl)oxy]-2,5-dimethylaniline]
2.02 | CCN(C)/C=N/c1cc(C)c(Oc2nc(C(C)(C)C)ns2)cc1C [A-1, N′-{4-[(3-(tert-butyl)-1,2,4-thiadiazol-5-yl)oxy]-2,5-dimethylphenyl}-N-ethyl-N-methylimidoformamide]
